The values below come from patent US20110282056A1, “PROTEIN KINASE INHIBITORS AND USE THEREOF” (priority 2008, published 2011).

Common to all, as to format: biochemical
One assay has as its target T1, VEGFR3 (Homo sapiens, UniProt P35916).
T1 construct: purchased Millpore Corp. (Millipore) 14-681
In words: VEGFR3 enzyme activity assay (Caliper LC3000 mobility shift). The note with it: 400 uM ATP (Km), 0.4 nM VEGFR3, 90 minutes at RT. How it is done:
(§1) Enzyme activity for VEGFR3, VEGFR2 and Flt3 were measured on the Caliper Life Sciences LC3000 (Hopkinton, Mass.). The system utilizes the principle of electroosmotic flow to separate and quantify the amount of phosphorylated-Fluorescein-labelled-peptide (product) from unphosphorylated-Fluorescein-labelled peptide (substrate). The amount of product and substrate are determined by measuring the peak heights from the electropherogram. The enzyme activity is then quantified by dividing the amount of product by the sum of the product and substrate. The inhibitory activity of a sample is measured by comparing the enzyme activity in the presence of sample versus the enzyme activity in the presence of dimethylsufoxide (DMSO). Specific assay conditions for each enzyme are listed below:
VEGFR3 assay: The peptide substrate at 1 uM (FITC-KKKKEEIYFFF-CONH2; synthesized at Tufts University, Boston, Mass.) was incubated with 400 uM of ATP, corresponding to the Michaelis-Menten (Km) constant of the enzyme/substrate reaction, and 0.4 nM of VEGFR3 (Millpore Corp., Cat. No. 14-681) for 90 minutes at RT. After 90 minutes, the reaction was stopped by the addition of 10 mM EDTA. The substrate and product were then separated on the LC3000.

The target of the next assay is T2, VEGFR2 (Homo sapiens, UniProt P35968).
T2 construct: purchased BPS Bioscience; San Diego, Calif; 40301
The assay can be described thus: VEGFR2 enzyme activity assay (Caliper LC3000 mobility shift). The conditions noted are these: 160 uM ATP (Km), 1 nM VEGFR2, 90 minutes at RT. How it is done:
as §1
VEGFR2 assay: The peptide substrate at 1 uM (5-FL-EEPLYWSFPAKKK-CONH2; synthesized at Tufts University, Boston, Mass.) was incubated with 160 uM of ATP, corresponding to the Michaelis-Menten (Km) constant of the enzyme/substrate reaction, and 1 nM of VEGFR2 (BPS Bioscience; San Diego, Calif.; Cat. No. 40301) for 90 minutes at RT. After 90 minutes, the reaction was stopped by the addition of 10 mM EDTA. The substrate and product were then separated on the LC3000.

A further assay addresses T3, Flt3 (Homo sapiens, UniProt P36888).
T3 construct: purchased BPS Bioscience; San Diego, Calif; 40225
T3 sequence (P36888 27-993): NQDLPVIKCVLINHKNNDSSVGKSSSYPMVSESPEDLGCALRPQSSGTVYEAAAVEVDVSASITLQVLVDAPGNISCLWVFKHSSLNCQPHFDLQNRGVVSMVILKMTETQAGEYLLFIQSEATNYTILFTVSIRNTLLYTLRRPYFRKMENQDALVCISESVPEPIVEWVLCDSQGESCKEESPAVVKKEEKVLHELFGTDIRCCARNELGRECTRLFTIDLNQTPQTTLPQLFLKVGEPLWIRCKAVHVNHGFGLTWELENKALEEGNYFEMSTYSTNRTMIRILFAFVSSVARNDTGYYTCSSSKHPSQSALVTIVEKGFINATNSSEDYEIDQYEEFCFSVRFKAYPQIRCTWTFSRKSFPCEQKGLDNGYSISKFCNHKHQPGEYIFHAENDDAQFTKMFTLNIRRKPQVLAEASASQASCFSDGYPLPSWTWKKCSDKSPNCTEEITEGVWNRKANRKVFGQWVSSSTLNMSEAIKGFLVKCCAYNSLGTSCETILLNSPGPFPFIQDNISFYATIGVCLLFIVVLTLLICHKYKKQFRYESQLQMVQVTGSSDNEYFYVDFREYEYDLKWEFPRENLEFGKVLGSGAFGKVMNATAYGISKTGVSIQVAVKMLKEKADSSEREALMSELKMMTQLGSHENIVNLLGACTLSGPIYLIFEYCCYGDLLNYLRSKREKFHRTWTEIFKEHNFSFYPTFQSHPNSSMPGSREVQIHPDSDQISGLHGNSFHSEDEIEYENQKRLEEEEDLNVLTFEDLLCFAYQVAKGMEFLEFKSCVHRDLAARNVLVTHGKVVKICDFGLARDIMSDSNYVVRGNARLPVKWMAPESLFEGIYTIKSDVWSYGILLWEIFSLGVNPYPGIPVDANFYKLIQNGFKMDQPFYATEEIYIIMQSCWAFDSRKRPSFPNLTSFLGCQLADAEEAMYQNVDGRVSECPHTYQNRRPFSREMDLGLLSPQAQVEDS
In words: Flt3 enzyme activity assay (Caliper LC3000 mobility shift). The conditions noted are these: 350 uM ATP (Km), 3 nM Flt3, 90 minutes at RT. How it is done:
as §1
Flt3 assay: The peptide substrate at 1 uM (FITC-AHA-UEAIYAAPFAKKK-CONH2; synthesized at Tufts University, Boston, Mass.) was incubated with 350 uM of ATP, corresponding to the Michaelis-Menten (Km) constant of the enzyme/substrate reaction, and 3 nM of Flt3 (BPS Bioscience; San Diego, Calif.; Cat. No. 40225) for 90 minutes at RT. After 90 minutes, the reaction was stopped by the addition of 10 mM EDTA. The substrate and product were then separated on the LC3000.

T1 sequence (P35916 25-1363): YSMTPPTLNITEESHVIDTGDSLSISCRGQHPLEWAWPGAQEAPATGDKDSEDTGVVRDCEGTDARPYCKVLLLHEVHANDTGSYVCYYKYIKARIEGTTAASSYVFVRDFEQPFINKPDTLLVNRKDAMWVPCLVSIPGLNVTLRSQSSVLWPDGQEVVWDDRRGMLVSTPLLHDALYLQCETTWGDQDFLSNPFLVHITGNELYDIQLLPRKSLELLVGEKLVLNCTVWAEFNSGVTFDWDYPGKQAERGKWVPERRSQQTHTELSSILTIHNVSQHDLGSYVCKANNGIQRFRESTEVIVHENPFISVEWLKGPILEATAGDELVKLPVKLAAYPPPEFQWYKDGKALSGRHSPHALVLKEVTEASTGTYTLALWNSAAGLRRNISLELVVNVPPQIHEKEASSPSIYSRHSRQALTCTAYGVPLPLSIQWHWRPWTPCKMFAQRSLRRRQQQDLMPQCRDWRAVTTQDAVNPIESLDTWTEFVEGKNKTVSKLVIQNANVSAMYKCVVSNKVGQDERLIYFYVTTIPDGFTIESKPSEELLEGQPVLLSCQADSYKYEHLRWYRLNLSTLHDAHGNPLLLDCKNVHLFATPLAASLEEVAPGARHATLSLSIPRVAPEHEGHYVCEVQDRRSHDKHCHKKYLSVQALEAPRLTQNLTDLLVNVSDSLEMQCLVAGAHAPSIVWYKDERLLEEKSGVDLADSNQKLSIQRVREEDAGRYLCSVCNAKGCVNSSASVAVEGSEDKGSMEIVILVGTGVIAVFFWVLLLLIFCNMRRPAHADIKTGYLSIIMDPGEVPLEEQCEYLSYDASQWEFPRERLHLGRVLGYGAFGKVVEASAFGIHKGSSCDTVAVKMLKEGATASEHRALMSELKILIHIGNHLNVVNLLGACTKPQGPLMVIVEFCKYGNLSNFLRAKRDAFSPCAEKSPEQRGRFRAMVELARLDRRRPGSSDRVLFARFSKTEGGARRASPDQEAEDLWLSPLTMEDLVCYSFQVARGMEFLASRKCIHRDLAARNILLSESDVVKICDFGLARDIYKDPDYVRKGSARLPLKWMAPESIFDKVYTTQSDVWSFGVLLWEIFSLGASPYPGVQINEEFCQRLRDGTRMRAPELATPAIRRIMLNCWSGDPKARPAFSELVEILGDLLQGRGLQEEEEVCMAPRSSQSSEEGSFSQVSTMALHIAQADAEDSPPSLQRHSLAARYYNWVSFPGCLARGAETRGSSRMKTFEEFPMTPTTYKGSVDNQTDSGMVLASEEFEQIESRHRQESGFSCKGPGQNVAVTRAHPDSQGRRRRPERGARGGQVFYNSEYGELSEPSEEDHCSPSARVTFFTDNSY
T2 sequence (P35968 20-1356): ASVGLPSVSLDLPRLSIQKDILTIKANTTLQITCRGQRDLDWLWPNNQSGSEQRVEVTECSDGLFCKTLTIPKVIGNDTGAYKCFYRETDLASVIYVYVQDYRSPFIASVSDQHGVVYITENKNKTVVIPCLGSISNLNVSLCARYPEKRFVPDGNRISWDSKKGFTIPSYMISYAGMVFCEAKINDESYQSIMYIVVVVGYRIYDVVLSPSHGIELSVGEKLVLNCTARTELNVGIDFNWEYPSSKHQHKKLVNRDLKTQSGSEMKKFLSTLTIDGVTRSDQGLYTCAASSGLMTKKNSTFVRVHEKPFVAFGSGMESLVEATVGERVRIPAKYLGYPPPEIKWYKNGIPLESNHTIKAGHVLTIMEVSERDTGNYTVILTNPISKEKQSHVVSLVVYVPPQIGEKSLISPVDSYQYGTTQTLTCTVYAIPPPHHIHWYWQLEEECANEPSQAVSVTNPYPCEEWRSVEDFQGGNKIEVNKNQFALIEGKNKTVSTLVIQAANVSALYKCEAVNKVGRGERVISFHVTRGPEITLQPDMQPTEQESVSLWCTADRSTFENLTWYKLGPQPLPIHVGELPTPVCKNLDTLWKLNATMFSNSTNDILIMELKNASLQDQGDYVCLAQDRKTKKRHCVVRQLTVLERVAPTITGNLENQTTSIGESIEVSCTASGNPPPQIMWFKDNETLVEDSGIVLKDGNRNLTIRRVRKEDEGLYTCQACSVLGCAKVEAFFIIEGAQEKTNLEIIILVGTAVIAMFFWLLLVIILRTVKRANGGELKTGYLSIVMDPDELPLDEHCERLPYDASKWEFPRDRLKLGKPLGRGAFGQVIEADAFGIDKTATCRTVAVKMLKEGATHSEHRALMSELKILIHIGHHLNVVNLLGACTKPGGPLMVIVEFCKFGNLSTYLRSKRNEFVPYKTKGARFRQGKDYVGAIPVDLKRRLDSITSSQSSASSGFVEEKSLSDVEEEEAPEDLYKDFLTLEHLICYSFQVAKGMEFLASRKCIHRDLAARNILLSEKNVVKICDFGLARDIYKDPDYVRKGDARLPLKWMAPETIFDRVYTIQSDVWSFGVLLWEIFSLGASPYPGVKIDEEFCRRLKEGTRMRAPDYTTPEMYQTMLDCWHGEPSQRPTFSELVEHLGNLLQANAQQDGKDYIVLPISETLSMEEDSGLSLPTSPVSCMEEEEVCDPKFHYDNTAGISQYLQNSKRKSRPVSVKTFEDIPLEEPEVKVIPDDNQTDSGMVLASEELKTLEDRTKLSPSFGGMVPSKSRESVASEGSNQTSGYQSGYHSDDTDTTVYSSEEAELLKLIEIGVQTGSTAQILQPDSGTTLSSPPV

Regarding `C(#Cc1ccnc2[nH]ccc12)c1cccc(N2CCOCC2)c1` [compound 47], the IC50 at VEGFR3 was 0.1 to 1 µM; at VEGFR2, more than 1 µM; on Flt3, more than 1 µM.

As to `C(#Cc1cnc2[nH]ccc2c1)c1ccccc1` [compound 108], the IC50 at VEGFR3, on VEGFR2 and at Flt3 was more than 1 µM throughout.

On to `NCc1ccccc1C#Cc1ccnc2[nH]ccc12` [compound 118], for which the half-inhibitory concentration (IC50) at VEGFR3, on VEGFR2 and on Flt3 was more than 1 µM each time.

As to `COc1cccc(C#Cc2ccnc3[nH]ccc23)n1` [compound 63], the results for the IC50 on VEGFR3, on VEGFR2 and on Flt3 were 0.1 to 1 µM, more than 1 µM and more than 1 µM, respectively.

With `Cc1ccncc1C#Cc1ccnc2[nH]ccc12` [compound 57], the IC50 on VEGFR3, at VEGFR2 and at Flt3 was 0.1 to 1 µM in each case.

Turning to `C[Si](C)(C)C#Cc1ncnc2sc3c(c12)CCCC3` [compound 112], the IC50 at VEGFR3, on VEGFR2 and on Flt3 was more than 1 µM each time.

In the case of `C(#Cc1ccnc2[nH]ccc12)c1ccc(-c2ccccc2)cc1` [compound 133], the 50% inhibitory concentration (IC50) at VEGFR3, on VEGFR2 and at Flt3 was more than 1 µM throughout.

Take `COc1ccc(C#Cc2ccnc3[nH]ccc23)cc1OC` [compound 85]: the IC50 at VEGFR3, at VEGFR2 and on Flt3 was more than 1 µM each time.

`Nc1ccc(C#Cc2cnc3[nH]ccc3c2)cc1` [compound 79]: the IC50 at VEGFR3 was more than 1 µM; on VEGFR2, more than 1 µM; on Flt3 it was 0.1 to 1 µM.

As to `COc1ccccc1C#Cc1ccnc2[nH]ccc12` [compound 52], the concentration for half-maximal inhibition (IC50) at VEGFR3 was 0.1 to 1 µM; on VEGFR2, more than 1 µM; on Flt3, more than 1 µM.

As for `Cc1cccc(C#Cc2ccnc3[nH]ccc23)n1` [compound 76], the IC50 at VEGFR3, at VEGFR2 and at Flt3 was more than 1 µM in each case.

For `COc1ccc(F)cc1C#Cc1ccnc2[nH]ccc12` [compound 49], the IC50 at VEGFR3 is 0.1 to 1 µM; at VEGFR2 it was more than 1 µM; on Flt3 it was more than 1 µM.

With `COC(=O)c1ccc(C#Cc2ccnc3[nH]ccc23)cc1OC` [compound 122], the IC50 at VEGFR3, at VEGFR2 and at Flt3 was more than 1 µM throughout.

As to `Nc1cccc(C#Cc2cnc3[nH]ccc3c2)c1` [compound 71], the values for the half-inhibitory concentration (IC50) at VEGFR3, at VEGFR2 and on Flt3 were 0.1 to 1 µM, more than 1 µM and more than 1 µM, respectively.

As to `COc1cncc(C#Cc2ccnc3[nH]ccc23)c1` [compound 46], the 50% inhibitory concentration (IC50) on VEGFR3, on VEGFR2 and on Flt3 was 0.1 to 1 µM throughout.

`COc1ccc(CNC(=O)Cc2ccccc2C#Cc2ccnc3[nH]ccc23)cc1` [compound 75]: the IC50 on VEGFR3, on VEGFR2 and at Flt3 was more than 1 µM in each case.

As to `COc1cccnc1C#Cc1ccnc2[nH]ccc12` [compound 84], the half-inhibitory concentration (IC50) at VEGFR3, at VEGFR2 and on Flt3 was more than 1 µM in each case.

With `O=C(NCc1ccccc1C#Cc1ccnc2[nH]ccc12)C(F)(F)F` [compound 56], the concentration for half-maximal inhibition (IC50) at VEGFR3 is 0.1 to 1 µM; at VEGFR2, more than 1 µM; at Flt3 it was more than 1 µM.

With `C(#Cc1ccnc2[nH]ccc12)c1ccc(-c2cccs2)cc1` [compound 126], the IC50 on VEGFR3, on VEGFR2 and on Flt3 was more than 1 µM throughout.

For the compound `C(#Cc1ncnc2sc3c(c12)CCCC3)c1ccccc1` [compound 97], the IC50 on VEGFR3, on VEGFR2 and on Flt3 was more than 1 µM throughout.

As for `COC(=O)c1ccccc1C#Cc1ccnc2[nH]ccc12` [compound 43], the concentration for half-maximal inhibition (IC50) is 0.1 to 1 µM at VEGFR3, more than 1 µM on VEGFR2 and 0.1 to 1 µM at Flt3.

On to `C(#Cc1ccnc2[nH]ccc12)c1ccc2cc[nH]c2c1` [compound 88], for which the IC50 at VEGFR3, at VEGFR2 and on Flt3 was more than 1 µM in each case.

Consider `Cc1cc(C)cc(C#Cc2ccnc3[nH]ccc23)c1` [compound 77], for which the IC50 at VEGFR3, at VEGFR2 and on Flt3 was more than 1 µM in each case.

As to `CC(C)Oc1cccc(C#Cc2ccnc3[nH]ccc23)c1` [compound 102], the concentration for half-maximal inhibition (IC50) at VEGFR3, on VEGFR2 and at Flt3 was more than 1 µM in each case.

Consider `Nc1cccc(C#Cc2ccnc3[nH]ccc23)c1` [compound 99], for which the half-inhibitory concentration (IC50) on VEGFR3, on VEGFR2 and on Flt3 was more than 1 µM in each case.

For `C(#Cc1ccnc2[nH]ccc12)c1ccccc1-c1cccs1` [compound 101], the concentration for half-maximal inhibition (IC50) on VEGFR3, at VEGFR2 and at Flt3 was more than 1 µM each time.

With `CCNC(=O)/C=C/c1cccc(C#Cc2ccnc3[nH]ccc23)c1` [compound 54], the half-maximal inhibitory concentration (IC50) at VEGFR3 is 0.1 to 1 µM; at VEGFR2, more than 1 µM; at Flt3 it was more than 1 µM.

In the case of `FC(F)(F)Oc1ccc(C#Cc2ccnc3[nH]ccc23)cc1` [compound 120], the IC50 at VEGFR3, on VEGFR2 and on Flt3 was more than 1 µM throughout.

On to `COc1ccc(NC(=O)Cc2ccccc2C#Cc2ccnc3[nH]ccc23)cc1` [compound 139], for which the 50% inhibitory concentration (IC50) on VEGFR3, at VEGFR2 and at Flt3 was more than 1 µM each time.

Turning to `C[Si](C)(C)C#Cc1ncnc2[nH]ccc12` [compound 109], the IC50 on VEGFR3, at VEGFR2 and on Flt3 was more than 1 µM each time.

Regarding `C(#Cc1ccnc2[nH]ccc12)c1ccc(N2CCOCC2)cc1` [compound 128], the IC50 on VEGFR3, at VEGFR2 and at Flt3 was more than 1 µM throughout.

As to `C(#Cc1ccnc2[nH]ccc12)c1cccc2[nH]ccc12` [compound 60], the figures for the IC50 at VEGFR3, at VEGFR2 and at Flt3 were 0.1 to 1 µM, more than 1 µM and more than 1 µM, respectively.

For `C(#Cc1ccnc2[nH]ccc12)c1ccncc1` [compound 87], the half-maximal inhibitory concentration (IC50) on VEGFR3, at VEGFR2 and on Flt3 was more than 1 µM in each case.

Take `C#Cc1ccc(C#Cc2ccnc3[nH]ccc23)cc1` [compound 95]: the IC50 on VEGFR3, on VEGFR2 and at Flt3 was more than 1 µM throughout.

Take `N#CCc1ccc(C#Cc2ccnc3[nH]ccc23)cc1` [compound 61]: the values for the 50% inhibitory concentration (IC50) on VEGFR3, on VEGFR2 and at Flt3 were 0.1 to 1 µM, more than 1 µM and 0.1 to 1 µM, respectively.

Take `C(#Cc1ccnc2[nH]ccc12)c1cncnc1` [compound 83]: the half-maximal inhibitory concentration (IC50) at VEGFR3, at VEGFR2 and on Flt3 was more than 1 µM in each case.
